# Data as given in patent US8648111B2, “N1-2-thiophene-2-ylethyl-N2-substituted biguanide derivate, preparation method thereof, and pharmaceutical composition containing the same as active ingredients” (Hanall Biopharma Co., Ltd., priority 2008, dated 2014).
# Where two headings read alike, the source gives them in different places.
# Columns and labels:
# Assay type in all cases: cell-based
# [1] = tested on: HepG2 cells; test: Measurement of cholesterol synthesis inhibitory ability (cholesterol content in cell lysates, Amplex red)
# Description: (§1) 2 mM metformin was used as a comparative compound for each of the plates (control group).
# A cholesterol synthesis inhibitory ability, which is an important function of AMPK (AMP-activated protein kinase), was measured using HepG2 cells (ATCC: American Type Culture Collection) as a hepatic cell model according to the following procedure.
# The hepatic cell model HepG2 cells were cultured in 1% serum-containing media (DMEM (Gibco), FBS (Gibco)) for 24 hours, and then treated with 100 μM or 500 μM of each of the compounds prepared in Examples for 24 hours. Then, the cells were disrupted with a lysis solution (0.1 M potassium phosphate, pH 7.4, 0.05 M NaCl, 5 mM cholic acid, 0.1% Triton X-100 (Sigma)). To the disrupted cells was added the same volume of a reaction solution (2 U/mL of a cholesterol oxidizing agent, 2 U/mL of a peroxidase, 0.2 U/mL of a cholesterol esterase, and 300 μM of Amplex red as a fluorescent factor (Molecular Probe)), which was allowed to react at 37° C. for 30 minutes. After completion of the reaction, the content of cholesterol formed in the cell lysates was measured at a wavelength of 560/590 nm (ex/em) using a fluorescence microscope.
# A lower measurement value means an increased cholesterol synthesis inhibitory ability.
# [2] = tested on: HepG2 cells; test: Measurement of triglyceride (triglyceride content in cell lysates, Amplex red)
# Description: as §1
# HepG2 cells (ATCC: American Type Culture Collection) were cultured in 1% serum-containing media (DMEM (Gibco), FBS (Gibco)) for 24 hours, and then treated with 100 μM or 500 μM of each of the compounds prepared in Examples for 24 hours. Then, the cells were disrupted with a lysis solution (0.1 M potassium phosphate, pH 7.4, 0.05 M NaCl, 5 mM cholic acid, 0.1% Triton X-100). […] After completion of the reaction, the content of triglyceride formed in the cell lysates was measured at a wavelength of 560/590 nm (ex/em) using a fluorescence microscope.
# A lower measurement value means an increased triglyceride synthesis inhibitory ability.
# [3] = tested on: C2C12 cells; test: Measurement of glucose absorption ability (3H-deoxy-glucose uptake with insulin); conditions: for Glucose absorption (100 uM) Aver.: 100 uM compound with 1 μM insulin, 24 hours, differentiated C2C12, higher value = stronger, more than 200% counts as glucose absorption ability
# Description: as §1
# C2C12 cells (ATCC: American Type Culture Collection), a muscle cell model, were induced to differentiate into muscle cells in 2% bovine fetal serum-containing media (DMEM (Gibco), FBS (Gibco)) for 6 days. The C2C12 cells which differentiated into muscle cells were transferred to serum-free low glucose media (DMEM (Gibco), FBS (Gibco)), treated with 100 μM of each of the compounds, and then cultured with 1 μM of insulin for 24 hours. After cultivation, the cells were treated with 1 μCi ^3H-deoxy-glucose (Amersham Pharmacia) and 10 μM deoxy-glucose (Sigma) at 37° C. for 15 minutes. The media were removed therefrom, and the cells were washed twice with PBS (phosphate buffered saline). The washed cells were treated with 0.1N NaOH and neutralized with 1N HCl. The content of glucose absorbed into the cells was measured with a liquid scintillation counter.
# A higher measurement value means a stronger ability to reduce insulin resistance.
# [4] = tested on: HepG2 cells; test: Measurement of gluconeogenesis inhibitory ability (14C-lactate, glucose formed in cells)
# Description: as §1
# HepG2 cells (ATCC: American Type Culture Collection) were cultured in 10% serum-containing high glucose media, transferred to no serum-containing low glucose media (DMEM (Gibco), FBS (Gibco)), and then treated with 100 μM of each of the compounds for 24 hours. Then, the cells were treated with 0.5 μCi ^14C-lactate (Amersham Pharmacia) and 10 mM L-lactate (Sigma), and cultured for 4 hours. After cultivation, the media were removed therefrom, and the cells were washed with PBS, treated with 0.1N NaOH and kept at room temperature for 1 hour. Then, the cells were neutralized with 1N HCl, and the content of glucose formed in the cells was measured with a liquid scintillation counter.
# A lower measurement value means an increased gluconeogenesis inhibitory ability.
# [5] = 100 uM compound, 24 hours, HepG2, lower value = stronger cholesterol synthesis inhibition
# [6] = 500 uM compound, 24 hours, HepG2, lower value = stronger cholesterol synthesis inhibition
# [7] = 100 uM compound, 24 hours, HepG2, lower value = stronger triglyceride synthesis inhibition
# [8] = 500 uM compound, 24 hours, HepG2, lower value = stronger triglyceride synthesis inhibition
# [9] = 100 μM compound vs 2 mM metformin, by comparison of used amounts
# [10] = 100 uM compound, 24 hours, HepG2, lower value = stronger gluconeogenesis inhibition
# [11] = 100 uM compound, 24 hours, HepG2, lower value = stronger cholesterol synthesis inhibition, hydrochloride
# [12] = 500 uM compound, 24 hours, HepG2, lower value = stronger cholesterol synthesis inhibition, hydrochloride
# [13] = 100 uM compound, 24 hours, HepG2, lower value = stronger triglyceride synthesis inhibition, hydrochloride
# [14] = 500 uM compound, 24 hours, HepG2, lower value = stronger triglyceride synthesis inhibition, hydrochloride
# [15] = 100 uM compound, 24 hours, HepG2, lower value = stronger gluconeogenesis inhibition, hydrochloride, 100 µM
Molecule,"Cholesterol (100 uM) Aver. [1, 5]","Cholesterol (500 uM) Aver. [1, 6]","Triglyceride (100 uM) Aver. [2, 7]","Triglyceride (500 uM) Aver. [2, 8]",Glucose absorption (100 uM) Aver. [3],"Gluconeogenesis inhibition (100 uM) Aver. [4, 10]",other results
"CCN=C(NCCc1cccs1)NC(=N)N.Cl [Example 1, N1-(thiophen-2-ylethyl)-N2-ethyl biguanide hydrochloride]",45.18,30.51,56.70,54.57,322.7%,–,"glucose absorption effect relative to control group [3, 9]: about 20 times; effect in inhibiting gluconeogenesis relative to control group [4, 9]: at least 20 times; activity at 100 µM ([4]; Homo sapiens, HepG2, 24 h, 100 uM compound, 24 hours, HepG2, lower value = stronger gluconeogenesis inhibition, read-out: Gluconeogenesis inhibition (100 uM) Aver.): 48.9%"
"CCCCCCc1ccc(N=C(NCCc2cccs2)NC(=N)N)cc1.Cl [Example 29, N1-2-(thiophen-2-ylethyl)-N2-(4-hexylphenyl) biguanide hydrochloride]",30.10,119.39,8.04,42.57,3.96%,1.26,–
"COc1ccc(OC)c(N=C(NCCc2cccs2)NC(=N)N)c1.Cl [Example 16, N1-2-(thiophen-2-ylethyl)-N2-(2,5-dimethoxy)phenyl biguanide hydrochloride]",–,–,–,–,–,–,"Cholesterol (100 uM) Aver. [1, 11]: 85.0; Cholesterol (500 uM) Aver. [1, 12]: 58.5; Triglyceride (100 uM) Aver. [2, 13]: 73.8; Triglyceride (500 uM) Aver. [2, 14]: 51.3; Glucose absorption (100 uM) Aver. ([3]; hydrochloride): 147.3%; Gluconeogenesis inhibition (100 uM) Aver. [4, 15]: 68.89"
"Cl.N=C(N)NC(=NC1CCCC1)NCCc1cccs1 [Example 21, N1-2-(thiophen-2-ylethyl)-N2-cyclopentyl biguanide hydrochloride]",68.2,45.8,80.5,85.6,174.8%,97.66,–
N1-2-(thiophen-2-ylethyl)-N2-cyclohexyl biguanide hydrochloride [Example 6],–,–,–,–,56.15%,–,Cholesterol (100 uM) Aver. [1]: 30.58; Cholesterol (500 uM) Aver. [1]: 0.51; Triglyceride (100 uM) Aver. [2]: 51.00; Triglyceride (500 uM) Aver. [2]: −1.71; Gluconeogenesis inhibition (100 uM) Aver. [4]: 33.59
"Cl.N=C(N)NC(=NC1CCCCCC1)NCCc1cccs1 [Example 22, N1-2-(thiophen-2-ylethyl)-N2-cycloheptyl biguanide hydrochloride]",69.8,44.4,77.8,78.9,173.8%,96.63,–
"Cl.N=C(N)NC(=NCc1ccccc1)NCCc1cccs1 [Example 8, N1-2-(thiophen-2-ylethyl)-N2-t-benzyl biguanide hydrochloride]",37.77,7.28,77.65,30.78,243.3%,81.27,–
"COc1ccc(OC)c(N=C(NCCc2cccs2)NC(=N)N)c1.Cl [Example 31, N1-2-(thiophen-2-ylethyl)-N2-(2,5-dimethoxyphenyl) biguanide hydrochloride]",–,–,–,–,–,–,"Cholesterol (100 uM) Aver. [1, 11]: 75.67; Cholesterol (500 uM) Aver. [1, 12]: 49.39; Triglyceride (100 uM) Aver. [2, 13]: 81.74; Triglyceride (500 uM) Aver. [2, 14]: 57.32; Glucose absorption (100 uM) Aver. ([3]; hydrochloride): 168.20%; Gluconeogenesis inhibition (100 uM) Aver. [4, 15]: 96.29"
"Cl.N=C(N)NC(=Nc1ccc(Br)cc1)NCCc1cccs1 [Example 33, N1-2-(thiophen-2-ylethyl)-N2-(4-bromophenyl) biguanide hydrochloride]",24.52,31.66,29.12,27.48,14.24%,17.03,–
"CN=C(NCCc1cccs1)NC(=N)N.Cl [Example 5, N1-2-(thiophen-2-ylethyl)-N2-methyl biguanide hydrochloride]",–,41.36,–,41.59,–,–,"Cholesterol (100 uM) Aver. [1, 11]: 49.29; Triglyceride (100 uM) Aver. [2, 13]: 65.03; Glucose absorption (100 uM) Aver. ([3]; hydrochloride): 350.4%; Gluconeogenesis inhibition (100 uM) Aver. [4, 15]: 58.50"
"CC(C)(C)CC(C)(C)N=C(NCCc1cccs1)NC(=N)N.Cl [Example 2, N1-2-(thiophen-2-ylethyl)-N2-t-octyl biguanide hydrochloride]",63.63,55.38,29.21,−1.92,10.46%,68.28,–
"CCCCCN=C(NCCc1cccs1)NC(=N)N.Cl [Example 23, N1-2-(thiophen-2-ylethyl)-N2-pentyl biguanide hydrochloride]",11.05,15.66,13.83,17.16,0.00%,2.96,–
N1-2-(5-ethylthiophen-2-ylethyl)-N2-methyl biguanide hydrochloride [Example 46],84.52,71.64,90.82,86.07,353.21%,–,Gluconeogenesis inhibition (100 uM) Aver. [4]: 23.65
"CCCCN=C(NCCc1cccs1)NC(=N)N.Cl [Example 26, N1-2-(thiophen-2-ylethyl)-N2-butyl biguanide hydrochloride (isomer)]",43.20,13.28,47.59,30.67,18.34%,–,"Gluconeogenesis inhibition (100 uM) Aver. ([4]; 100 uM compound, 24 hours, HepG2, lower value = stronger gluconeogenesis inhibition, 100 µM): 81.70"
